Assay results: patent US7314720B2, “Method of diagnosing non-alcoholic steatohepatitis (nash) using molecular markers” (One Way Liver Genomic, S.L., priority 2002, dated 2008)

Tested on: PHB1
Test: PHB1 level regulation in cultured rat hepatocytes (Western blot)
Format: cell-based
Conditions: for effect on PHB1 levels: 24 h incubation under standard conditions, 100 μM methionine or 4 mM AdoMet in culture media
Method: FIG. 5 illustrates PHB1 level regulation by AdoMet in cultured rat hepatocytes. PHB1 levels were measured in rat hepatocytes cultured for 12 or 24 hours in the presence or absence of 100 μM methionine, 4 mM AdoMet or 20 mM cycloleucine. Liver extracts (15 μg/lane) were analyzed by Western blotting using specific antibodies. To ensure equal loading, the membranes were stained with red Ponceau. A representative blot from three independent experiments is shown. Hepatocytes were isolated from male Wistar rats (200-250 g) by perfusion with collagenases, as previously described ([…]., et al., Gastroenterology, 1998, 114:364-371). Once isolated, hepatocytes were cultured according to García-Trevijano et al. […] Cell viability was measured by trypan blue exclusion, and no significant differences were observed between the controls and any of the different treatments performed in this study. Protein extraction and western blotting were performed as previously described ([…]., et al., Oncogene, 1995, 10:963-971; Ruiz, F., et al., Hepatology, 1998, 28:1051-1057). Briefly, equal amounts of protein (15 μg) were resolved in SDS/12.5% polyacrylamide gels. Proteins were electrophoretically transferred to nitrocellulose membranes. Membranes were probed with anti-MAT (Ruiz, F., et al., Hepatology, 1998, 28:1051-1057), anti-PHB1, anti-β ATPase and anti-COX I and II. A secondary antibody conjugated to horseradish peroxidase was used. Blots were developed by chemiluminescence (Dupont).

SMILES	effect on PHB1 levels	decrease of PHB1 in the absence of methionine (exogenous addition of 4 mM AdoMet after 12 hours culture in the absence of methionine)	down-regulation of PHB1 (20 mM CL added to culture medium) [%]
C[S+](CC[C@H](N)C(=O)[O-])C[C@H]1O[C@@H](n2cnc3c(N)ncnc32)[C@H](O)[C@@H]1O (stereo partly shown) [AdoMet, S-adenosylmethionine]	no effect	prevented the decrease of PHB1	–
NC1(C(=O)O)CCCC1 [CL, cycloleucine]	–	–	55
CSCC[C@H](N)C(=O)O [methionine]	no effect	–	–
